Laboratory results from patent US20120190707A1, “SELECTIVE INHIBITORS OF AKT AND METHODS OF USING SAME” (priority 2008, published 2012).
“Also recorded” adds a separate entry of the source.

Legend:
AKT = assay: pAKT473 and total AKT by western analysis in UACC 903 (PTEN-) cells; type: cell-based, human
Protocol: FIG. 6 describes the effect of BI-69A11 on phosphorylation and total levels of AKT in UACC 903 (PTEN−) cells. (A) UACC903 and the modified clone 29-1 (PTEN+) cells were exposed to 10 micro.M BI-69A11 and 50 micro.M LY294002 (a PI3K inhibitor) and the levels of pAKT473 and total AKT determined by western analysis. […] (SF=Serum Free). (B) BI-69A11 inhibits PRAS40 phosphorylation. UACC903 melanoma cells or 29-1 cells (PTEN+) were subjected to treatment with IGF-1 (20 ng/mL) and the level of PRAS40 phosphorylation was assessed. […] The cells were collected, lysed and levels of pPRAS40 and total PRAS40 determined by western analysis. (C) AKT association with HSP90 is inhibited by BI-69A11. Human melanoma cells were treated with BI-69A11 (10.micro.M) or DMSO control for 4 h, followed by protein preparation and immunoprecipitation using antibodies to pan-AKT. MG132 treatment, when used, initiated 1 h prior to treatment and lasted up to the preparation of proteins (total of 5 h). The right panel depicts analysis of total lysates.
The term “cell lines”, as used herein, unless otherwise indicated, refer to UACC 903 cells and 29-1 cells. The cells were cultured in DMEM, supplemented with 10% FBS and maintained at 37° C. in 5% CO2. Cells were plated to 75% confluency and grown overnight at 37° C. Plates were rinsed twice with a serum-free DMEM medium and the appropriate concentration of the compound was added to the plates. Cells were harvested at different timepoints by scraping (for western blotting) or trypsinization (for cell proliferation assay) where appropriate.
Thus, we set to test the possibility that BI-69A11's ability to inhibit AKT activity may stem from inhibition of AKT protein expression (see data below). We thus assessed whether inhibition of AKT Ser473 phosphorylation coincides with its activity, namely the phosphorylation of known AKT substrates. […] Of note, AKT3, the primarily active isoform of AKT in melanoma cells, effectively phosphorylates PRAS40 (Madhunapantula et al., 2007). […]

PARP = PARP cleavage in 903 and 29-1 cells; type: cell-based, human; details: 2, 4 and 6 hours; listed as BI-69A11
Protocol: (A) 903 and 29-1 cells were exposed to different concentrations of BI-69A11 or UV light as a positive control and the percentage of cell death determined by trypan blue exclusion assay. (B) PARP cleavage was determined in 903 and 29-1 cells after treatment with BI-69A11 at 2, 4 and 6 hours.
Since AKT activity is important for tumor cell survival, its inhibition is expected to result in cell death. We thus monitored cell death in melanoma cells that were treated with BI-69A11.
For western blotting techniques, cells were lysed in RIPA buffer containing 50 mM TrisHCl pH7.4, 150 mM NaCl, 2 mM EDTA, 1% NP-40, 0.1% SDS. The protein concentration was estimated using the Coomassie Protein assay kit (Thermo Scientific, Rockford, Ill., USA). Equal concentrations of cell lysate (30-50 ug) were resolved on a 10% polyacrylamide gel and transferred onto Nitrocellulose membrane (GE Amersham). Membranes were blocked for 1-2 hours in either 3% BSA or 5% nonfat dried milk in Tris-buffered saline containing 0.05% Tween 20. Primary antibody incubations were performed overnight at 4° C. with shaking. The blots were washed followed by incubation with a secondary antibody incubation for 1 hour at room temperature. After washing, the blots were scanned on the Odyssey Licor scanner at the appropriate wavelength and the image was captured using the Odyssey software.

[1] = tested on: UACC 903 melanoma xenografts; assay: UACC 903 melanoma xenografts in nude mice; type: in vivo
Protocol: (A) Nude mice were subcutaneously injected with UACC 903 cells and tumors were allowed to reach an approximate size of 1 mm^3 before intraperitoneal treatment was started; treatment was performed twice per week for 3 weeks with the indicated concentrations of BI-69A11. Each of the experimental groups consisted of 10 mice that were subjected to treatment with the indicated concentration of BI-69A11. […] Tumors were measured with calipers at the indicated time points. The mice were sacrificed and tumors harvested at the end of this period were measured and weighed to determine tumor volume and mass. Blue bars represent control-vehicle treated group; yellow bars represent the 5 mg/Kg treatment group; the orange and green bars represent the 1 and 2 mg/Kg treatment groups, respectively. (B) Analysis of cell death in the tumors was performed using Tunel staining. Shown are representative pictures for control tumors (right) and a treatment group (5 mg/Kg; left). (C) Quantification of Tunel staining in the different tumor groups. Samples from each of the tumors were subjected to Tunel staining which was quantified by Aperio ImageScope and confirmed by visual inspection of representative samples. The percentage of Tunel positive cells is indicated in the graph. […]
In light of the efficient cell death elicited by BI-69A11, we assessed its activity on tumor growth in mouse xenografts. […]
For the tumor studies, UACC 903 cells […] were injected subcutaneously and tumor size was monitored using calipers twice per week. […] At the end of the study, tumors were harvested, weighed and measured.
For the tunel assay and quantitative analysis, the detection of nuclei with fragmented DNA by terminal deoxyribonucleotidyl transferase-mediated dUTP nick end labeling (TUNEL) was accomplished using the ApopTag Peroxidase In situ Apoptosis Detection Kit (Chemicon, Temecula, Calif., US) according to the instructions of the manufacturer. […]

[2] = 0.5-2.0 mg/kg intra-peritoneally twice per week, 3 weeks

O=C(/C=C/c1nc2ccccc2[nH]1)c1c(O)nc2ccc(Cl)cc2c1-c1ccccc1 [Compound 2, (E)-3-(3-(1H-benzo[d]imidazol-2-yl)acryloyl)-6-chloro-4-phenylquinolin-2(1H)-one]
levels of pAKT473 (AKT; 10 micro.M, UACC903 and 29-1 cells, FIG. 6A): Reduced levels of pAKT473
levels of total AKT (AKT; 903 cells, 10 micro.M, increasing time after treatment): reduced levels of total AKT
levels of pAKT Ser473 / AKT phosphorylation (AKT; UACC 903 cells, listed as BI-69A11): dose-dependent decrease; also recorded: effectively blocked
PARP cleavage, 903 cells compared with 29-1 (PARP): more pronounced in the UAC903 cells; also recorded: Increased PARP cleavage
growth of the melanoma tumors [1, 2]: effectively inhibits further growth
regression of the tumors [1, 2]: efficient regression
apoptosis in tumors by Tunel staining, compared with control tumors ([1]; treatment groups 0.5-2.0 mg/kg): higher degrees of apoptosis
